Laboratory results: patent US12497365B2, “4-pyridinyl formamide compound or derivative thereof, preparation method therefor, herbicidal composition and use thereof” (Qingdao Kingagroot Chemical Compound Co., Ltd., priority 2019, dated 2025)

Assays:
Experiment in all cases: Weeding effect in post-emergence stage
Format in all cases: in vivo
Conditions in all cases: active ingredient 2000 g/ha, 3 weeks after application, fresh weight control rate
Chenopodium album = test system: Chenopodium album
In short: (§1)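 Greenhouse-grown weeds at the 2-3 leaf stage, about 2 weeks after sowing, were sprayed with compound at 2000-125 g/ha. The spray solution was made from acetone with Tween 80 and 1.5 L/ha methyl oleate concentrate as synergist. Fresh-weight growth control was scored 3 weeks after treatment.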

Descurainia sophia = test system: Descurainia sophia
In short: as §1

Abutilon theophrasti = test system: Abutilon theophrasti
In short: as §1

[1] = test system: Amaranthus retroflexus L.
In short: as §1

SMILES	Weeding effect, activity level (growth control rate), Chenopodium album (Chenopodium album)	Weeding effect, activity level (growth control rate), Descurainia sophia (Descurainia sophia)	Weeding effect, activity level (growth control rate), Abutilon theophrasti (Abutilon theophrasti)	Weeding effect, activity level (growth control rate), Amaranthus retroflexus L. [1]
Cn1nnnc1NC(=O)c1ccnc(-c2ccc(F)cc2)c1C=C(F)F [Compound 1-222]	5 (Level 5: growth control rate is above 85%)	5 (Level 5: growth control rate is above 85%)	5 (Level 5: growth control rate is above 85%)	5 (Level 5: growth control rate is above 85%)
Cn1nnnc1NC(=O)c1ccnc(-c2ccc(F)cc2)c1-c1ccc(F)cc1 [Compound 1-223]	5 (Level 5: growth control rate is above 85%)	5 (Level 5: growth control rate is above 85%)	5 (Level 5: growth control rate is above 85%)	5 (Level 5: growth control rate is above 85%)
Cn1nnnc1NC(=O)c1ccnc(-c2cscn2)c1Cl [Compound 1-228]	5 (Level 5: growth control rate is above 85%)	5 (Level 5: growth control rate is above 85%)	5 (Level 5: growth control rate is above 85%)	5 (Level 5: growth control rate is above 85%)
Cn1nnnc1NC(=O)c1ccnc(-c2cncs2)c1Cl [Compound 1-229]	5 (Level 5: growth control rate is above 85%)	5 (Level 5: growth control rate is above 85%)	5 (Level 5: growth control rate is above 85%)	5 (Level 5: growth control rate is above 85%)
Cn1nnnc1NC(=O)c1ccnc(-c2nccs2)c1Cl [Compound 1-230]	5 (Level 5: growth control rate is above 85%)	5 (Level 5: growth control rate is above 85%)	5 (Level 5: growth control rate is above 85%)	5 (Level 5: growth control rate is above 85%)
Cn1ccnc1-c1nccc(C(=O)Nc2nnnn2C)c1Cl [Compound 1-233]	5 (Level 5: growth control rate is above 85%)	5 (Level 5: growth control rate is above 85%)	5 (Level 5: growth control rate is above 85%)	5 (Level 5: growth control rate is above 85%)
Cn1cncc1-c1nccc(C(=O)Nc2nnnn2C)c1Cl [Compound 1-234]	5 (Level 5: growth control rate is above 85%)	5 (Level 5: growth control rate is above 85%)	5 (Level 5: growth control rate is above 85%)	5 (Level 5: growth control rate is above 85%)
Cc1nnc(-c2nccc(C(=O)Nc3nnnn3C)c2Cl)s1 [Compound 1-249]	5 (Level 5: growth control rate is above 85%)	5 (Level 5: growth control rate is above 85%)	5 (Level 5: growth control rate is above 85%)	5 (Level 5: growth control rate is above 85%)
